Consider 17 compounds from patent US11767296B2, “Heteroaryl compounds as kinase inhibitor” (FUJIAN HAIXI PHARMACEUTICALS CO., LTD, priority 2018, dated 2023).

Molecules are shown by their SMILES. Where only a bound is given, the exact number is not on record here.

One test concerns the target T1, CSF-1R (Homo sapiens, UniProt P07333).
T1 construct: purchased Invitrogen PV3249
The test is described as follows: CSF-1R kinase assay (HTRF kinEASE TK). The test is classed as biochemical. The following applies: ATP 2.5 uM, enzyme 0.012 ng/ul, read-out: In vitro inhibitory activity of CSF-1R IC50. On the procedure: Example 53: CSF-1R Kinase Assay
I. Materials and Instruments
• 2104 EnVision® Multilabel Reader (PerkinElmer) • OptiPlate-384, White Opaque 384-well MicroPlate (Cat.6007290, PerkinElmer) • HTRF kinEASE TK (Cat.62TKOPEC, Cisbio) • CSF-1R(Cat. PV3249, Invitrogen) • ATP 10 mM (Cat. PV3227, Invitrogen) • DTT 1 M (Cat. D5545, Sigma) • MgCl2 1 M (Cat. M8266, Sigma) • MnCl2 1 M (Cat.244589. Sigma)
II. Experimental Procedure
Substrate-TK and ATP were diluted to 5 times of the reaction concentration by 1×Kinase Buffer. CSF1R enzyme was diluted to 5×enzyme solution by 1×kinase buffer. Sa-XL665 was diluted to 4×Sa-XL665 solution by Detection Buffer. 100×TK-Ab-Cryptate Solution TK-Ab-Cryptate was diluted to 100×TK-Ab-Cryptate solution by Detection Buffer. 2. Experimental Procedure After all reagents had been prepared according to the above method, except enzymes, the sample was added after equilibrium to room temperature. • a. Firstly, 2.5% DMSO solution was prepared by using 1×kinase buffer (the high concentration of DMSO will affect the reaction and control the final concentration of DMSO to 1%). Then the compounds were diluted by 2.5% DMSO solution corresponding to the enzyme. The screening concentration of the compounds was 4 times gradient dilution from 1000 nM, and 8 concentrations. In addition to the control pore, 4 microlitres of diluted solution containing 2.5% DMSO were added to the reaction pore and 4 microlitres of previously prepared solution containing 2.5% DMSO were added to the control pore. • b. 2 microlitres of previously prepared TK-biotin substrate solution was added to all reaction pore (the amount of substrate used for enzyme screening is shown in Table 15). • c. Adding 2 microlitres of CSF1R enzyme solution of corresponding concentration (the amount of enzyme is shown in Table 15) to all reaction pore except negative pore. The negative pore is supplemented with 2 microlitres of enzyme corresponding to 1 xkinase buffer. After mixing, the compound and enzyme can be fully combined by incubating at room temperature for 10 minutes. • d. Enzyme reaction was initiated by adding 2 microlitres ATP solution of corresponding concentration to all reaction pore. The reaction time was 30 minutes (the corresponding ATP concentration and reaction time at enzyme screening were shown in Table 15). • e. Preparing the test solution 5 minutes before the end of kinase reaction. Streptavidin-XL665 and TK antibody europium cryptate (1:100) were prepared with detection buffer in the kit (the corresponding concentration of detection reagent for enzyme screening is shown in Table 15). • f. After the kinase reaction, 5 microlitres of diluted Streptavidin-XL665 were added to all reaction pore, mixing, and then the diluted TK antibody europium cryptate solution was added immediately. • g. After 1 hour reaction at room temperature, the fluorescence signals (320 nm stimulation, 665 nm, 615 nm emission) were detected by ENVISION (Perkinelmer) instrument. The inhibition rate of each pore was calculated by full active pore and background signal pore, and the average value of complex pore was obtained. Meanwhile, the half inhibitory activity (IC50) of each compound was fitted by professional drawing analysis software PRISM 5.0. The Flow Chart of the Experiment is as Follows:
3. Data Analysis Emission Ratio (ER)=665 nm Emission signal/615 nm Emission signal Inhibitory rate=(ERpositive−ERsample)/(ERpositive−ERnegative)*100% Using Graphpad Prism 5 and log (inhibitor) vs. normalized response to fit IC50 curve and calculate IC50 value. The IC50 data of the compounds prepared in Representative Examples 3-52 are as follows (Table 18): […]

The subject of the next test is NFS-60 cells. Description: NFS-60 cell assay (CCK proliferation, M-CSF stimulated). The test is classed as cell-based. The conditions noted are these: Mus musculus, compound 0.5 uM, 72 h, 40 ng/mL M-CSF, read-out: inhibition ratio % (NFS-60 cell proliferation). On the procedure: Example 54: NFS-60 Cell Assay
1. Experimental Materials
Mouse Myelogenous Leukemia Cells (NFS-60)
Using DMSO to dissolve, and the required concentration was prepared with full culture medium without factors.
Penicillin-streptomycin: TRANS
Mouse M-CSF/CSF-1 Protein: Sino Biological Inc, No. 51112-MNAH
M-CSF: Qilu Pharmaceutical co., Ltd.
The logarithmic growth phase of NFS-60 cells (1640+10% FBS+40 ng/ml M-CSF+1% Penicillin-streptomycin) were centrifuged (1000 r/min) and cultured in a factor-free medium at 37° C., 5% CO2 for 24 hours. Centrifugating (1000 r/min), the culture medium was replaced by new culture medium including 40 ng/mL factors, and inoculated on 96-well plate by 2*10^4 cells/mL, 100 μL/hole. After 16 hours, the tested compounds were added 10 μL/hole, 3 duplicate holes per compound, 37° C., 5% CO2, continue to cultured for 72 h. Then 10 μL CCK reagent was added to each hole. After incubation for 4 hours, the absorbance of each hole was measured at 450 nm wavelength. According to Formula: Inhibitory rate (%)=(1-OD value of test pore/OD value of solvent control pore)×100% 3. Experimental Results The experimental results of the inhibition of NFS-60 cell proliferation by the compounds prepared in Example 3-52, 0.5 uM, are shown in the following table: […]

T1 sequence (P07333 20-972): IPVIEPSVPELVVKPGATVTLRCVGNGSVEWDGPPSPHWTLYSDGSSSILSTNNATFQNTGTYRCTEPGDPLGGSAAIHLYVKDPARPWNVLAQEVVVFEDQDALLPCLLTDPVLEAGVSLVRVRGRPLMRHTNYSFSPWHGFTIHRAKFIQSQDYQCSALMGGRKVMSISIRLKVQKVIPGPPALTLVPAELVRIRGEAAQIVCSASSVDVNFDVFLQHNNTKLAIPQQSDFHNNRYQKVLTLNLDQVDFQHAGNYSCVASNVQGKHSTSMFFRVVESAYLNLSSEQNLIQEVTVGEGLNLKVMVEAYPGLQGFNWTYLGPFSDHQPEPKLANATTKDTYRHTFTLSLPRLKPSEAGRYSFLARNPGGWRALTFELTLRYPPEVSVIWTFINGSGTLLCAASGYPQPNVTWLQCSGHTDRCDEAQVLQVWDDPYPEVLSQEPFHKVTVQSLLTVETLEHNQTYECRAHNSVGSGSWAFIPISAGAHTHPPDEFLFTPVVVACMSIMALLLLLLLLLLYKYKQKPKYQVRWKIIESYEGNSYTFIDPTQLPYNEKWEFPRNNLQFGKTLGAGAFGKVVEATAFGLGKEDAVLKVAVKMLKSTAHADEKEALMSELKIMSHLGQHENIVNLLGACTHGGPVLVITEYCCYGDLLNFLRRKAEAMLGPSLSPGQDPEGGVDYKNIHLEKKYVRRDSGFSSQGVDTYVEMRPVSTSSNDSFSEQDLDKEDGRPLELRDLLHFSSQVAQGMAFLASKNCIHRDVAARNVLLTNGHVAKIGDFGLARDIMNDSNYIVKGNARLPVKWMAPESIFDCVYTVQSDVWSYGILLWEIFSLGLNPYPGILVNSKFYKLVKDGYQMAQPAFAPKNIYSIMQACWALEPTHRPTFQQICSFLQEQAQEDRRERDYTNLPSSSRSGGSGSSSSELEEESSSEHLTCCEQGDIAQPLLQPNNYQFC

For the compound `Cc1ccc(C(=O)Nc2cccc([C@@H](C)Oc3cc(-c4cccnc4)cnc3N)c2)cc1N(C)C` [Compound 206, (R)-N-(3-(1-((6-amino-[3,3′-bipyridin]-5-yl)oxy)ethyl)phenyl)-3-(dimethylamino)-4-methylbenzamide], on CSF-1R, the concentration for half-maximal inhibition (IC50) is at most 50 nM. Moreover, in the test on NFS-60 cells, the inhibition at 0.5 µM is at least 50%.
Take `CSc1ccc(C(=O)Nc2cccc([C@@H](C)Oc3cc(-c4cnn(C)c4)cnc3N)c2)cc1` [Compound 181, (R)-N-(3-(1-((2-amino-5-(1-methyl-1H-pyrazol-4-yl)pyridin-3-yl)oxy)ethyl)phenyl)-4-(methylthio)benzamide]: the IC50 on CSF-1R is at most 50 nM. The inhibition at 0.5 µM in the test on NFS-60 cells is at least 50%.
Regarding `C[C@@H](Oc1cc(-c2cnn(C)c2)cnc1N)c1cccc(NC(=O)c2cccc([S+](C)[O-])c2)c1` (stereo partly drawn) [Compound 367, N-(3-((R)-1-((2-amino-5-(1-methyl-1H-pyrazol-4-yl)pyridin-3-yl)oxy)ethyl)phenyl)-3-(methylsulfinyl)benzamide], the IC50 on CSF-1R was at most 50 nM. For the same compound, in the test with NFS-60 cells, the inhibition at 0.5 µM is at least 50%.
In the case of `Cc1cccc(C(=O)Nc2cccc([C@H](C)Oc3cc(Cl)cnc3N)c2)c1` [Compound 54, (S)-N-(3-(1-((2-amino-5-chloropyridin-3-yl)oxy)ethyl)-phenyl)-3-methylbenzamide], on CSF-1R, the IC50 is at most 50 nM. In the test with NFS-60 cells, the inhibition at 0.5 µM lay in the range of 10 to 50%.
Consider `C[C@@H](Oc1cc(-c2cnn(C)c2)cnc1N)c1cccc(NC(=O)c2cccc(S(C)(=O)=O)c2)c1` [Compound 168, (R)-N-(3-(1-((2-amino-5-(1-methyl-1H-pyrazol-4-yl)pyridin-3-yl)oxy)ethyl)phenyl)-3-(methylsulfonyl)benzamide], for which the inhibition at 0.5 µM with NFS-60 cells is at least 50%.
Still for that read-out and setting: for `C[C@@H](Oc1cc(-c2cccnc2)cnc1N)c1cccc(NC(=O)c2cccc(S(C)(=O)=O)c2)c1` [Compound 199, (R)-N-(3-(1-((6-amino-[3,3′-bipyridin]-5-yl)oxy)ethyl)phenyl)-3-(methylsulfonyl)benzamide] the value was at least 50%.
`C[C@@H](Oc1cc(Cl)cnc1N)c1cccc(NC(=O)c2ccc3c(c2)S(=O)(=O)CC3)c1` [Compound 134, (R)-N-(3-(1-((2-amino-5-chloropyridin-3-yl)oxy)ethyl)-phenyl)-2,3-dihydrobenzo[b]thiophene-6-carboxamide 1,1-dioxide]: the IC50 on CSF-1R was at most 50 nM. Besides, the inhibition at 0.5 µM in the test with NFS-60 cells was at least 50%.
On to `Cc1ccc(C(=O)Nc2cccc([C@@H](C)Oc3cc(Cl)cnc3N)c2)cc1C` [Compound 132, (R)-N-(3-(1-((2-amino-5-chloropyridin-3-yl)oxy)ethyl)-phenyl)-3,4-dimethylbenzamide], for which the half-inhibitory concentration (IC50) on CSF-1R was at most 50 nM. Moreover, the inhibition at 0.5 µM in the test with NFS-60 cells was at least 50%.
Regarding `C[C@@H](Oc1cc(-c2cccnc2)cnc1N)c1cccc(NC(=O)c2cccc(C3CC3)c2)c1` [Compound 200, (R)-N-(3-(1-((6-amino-[3,3′-bipyridin]-5-yl)oxy)ethyl)phenyl)-3-cyclopropylbenzamide], in the test with NFS-60 cells, the inhibition at 0.5 µM was at least 50%.
Consider `COc1cccc(C(=O)Nc2cccc([C@@H](C)Oc3cc(Cl)cnc3N)c2)c1` [Compound 74, (R)-N-(3-(1-((2-amino-5-chloropyridin-3-yl)oxy)ethyl)-phenyl)-3-methoxybenzamide], for which, at CSF-1R, the IC50 is at most 50 nM. Besides, the inhibition at 0.5 µM in the test with NFS-60 cells is at least 50%.
As for `CSc1cccc(C(=O)Nc2cccc([C@@H](C)Oc3cc(-c4cnn(C)c4)cnc3N)c2)c1` [Compound 180, (R)-N-(3-(1-((2-amino-5-(1-methyl-1H-pyrazol-4-yl)pyridin-3-yl)oxy)ethyl)phenyl)-3-(methylthio)benzamide], on CSF-1R, the IC50 was at most 50 nM. For the same compound, the inhibition at 0.5 µM in the test with NFS-60 cells was at least 50%.
On to `C[C@@H](Oc1cc(Cl)cnc1N)c1cccc(NC(=O)c2cc(C(F)(F)F)cc(S(C)(=O)=O)c2)c1` [Compound 150, (R)-N-(3-(1-((2-amino-5-chloropyridin-3-yl)oxy)ethyl)-phenyl)-3-(methylsulfonyl)-5-(trifluoromethyl)benzamide], for which the inhibition at 0.5 µM in the test on NFS-60 cells was at least 50%.
As to `Cc1cc(C)cc(C(=O)Nc2cccc([C@@H](C)Oc3cc(Cl)cnc3N)c2)c1` [Compound 137, (R)-N-(3-(1-((2-amino-5-chloropyridin-3-yl)oxy)ethyl)-phenyl)-3,5-dimethylbenzamide], the inhibition at 0.5 µM with NFS-60 cells is at least 50%.
On to `C[C@@H](Oc1cc(-c2cnn(C3CC3)c2)cnc1N)c1cccc(NC(=O)c2cccc(N(C)C)c2)c1` [Compound 212, (R)-N-(3-(1-((2-amino-5-(1-cyclo-propyl-1H-pyrazol-4-yl)pyridin-3-yl)oxy)ethyl)phenyl)-3-(dimethyl-amino)benzamide], for which the inhibition at 0.5 µM in the test with NFS-60 cells is at least 50%.
On to `C[C@@H](Oc1cc(-c2cccnc2)cnc1N)c1cccc(NC(=O)c2cccc(N(C)C)c2)c1` [Compound 205, (R)-N-(3-(1-((6-amino-[3,3′-bipyridin]-5-yl)oxy)ethyl)phenyl)-3-(dimethylamino)benzamide], for which the IC50 at CSF-1R was at most 50 nM. Also, the inhibition at 0.5 µM in the test on NFS-60 cells is at least 50%.
For the compound `C[C@@H](Oc1cc(-c2cnn(C)c2)cnc1N)c1cccc(NC(=O)c2cccc(C(F)(F)F)c2)c1` [Compound 169, (R)-N-(3-(1-((2-amino-5-(1-methyl-1H-pyrazol-4-yl)pyridin-3-yl)oxy)ethyl)phenyl)-3-(trifluoromethyl)benzamide], the inhibition at 0.5 µM with NFS-60 cells is at least 50%.
As to `Cc1ccc(C(=O)Nc2cccc([C@@H](C)Oc3cc(Cl)cnc3N)c2)cc1S(C)(=O)=O` [Compound 126, (R)-N-(3-(1-((2-amino-5-chloropyridin-3-yl)oxy)ethyl)-phenyl)-4-methyl-3-(methylsulfonyl)benzamide], the inhibition at 0.5 µM in the test on NFS-60 cells is at least 50%.
